Earlier results, collected in US20230181510A1, “COMPOSITION AND METHODS OF RETINOIC ACID” (priority 2020, published 2023).

Experiments:
human skin = settings: topical stabilized treatment, human skin in vitro and in vivo
collagen = settings: topical treatment

In the case of retinoic acid, the “Expression of HAS genes and HA production” value (human skin) is given as “induce the expression of hyaluronic acid (HA) synthase (HAS) genes and HA production” and the Collagen regeneration (collagen) is given as “stimulates collagen regeneration”.
